IC50 and Ki data for 25 compounds are collected here from patent publication US20230159510A1, “NOVEL PRMT5 INHIBITORS” (AMGEN INC., priority 2020, published 2023).

Read-outs that look alike come from different tables or passages of the source.

In one assay the test system is HCT116 MTAP null cells. The experiment in a line: HCT116 proliferation assay, MTAP null cells (CellTiter-Glo, 6 days). Type of assay: cell-based. Conditions: 144 h, read-out: Protif_ HCT116-MTAP null IC50. In a few lines:
(§1)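 Both lines grow in RPMI 1640 containing 10% fetal bovine serum. After an overnight rest, they receive compound at up to 1 or 10 µM in threefold serial dilutions, with vehicle wells holding DMSO only.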
A general note: Cellular ATP, detected with luciferase, serves as a proxy for viable cell number.

The next assay has as its system HCT116 WT cells. The experiment in a line: HCT116 proliferation assay, WT cells (CellTiter-Glo, 6 days). It is filed as cell-based. Conditions: Homo sapiens, HCT-116, 144 h, read-out: Prolif_HCT116-WT IC50. In a few lines:
as §1

A further assay deals with PRMT5/MEP50 (Homo sapiens, UniProt O14744). The experiment in a line: MTase-Glo methyl transferase assay, Method A (Histone H4 peptide, 1 µM MTA, 24 h pre-incubation). Type of assay: biochemical. Further details: made in house. Conditions: read-out: PRMT5 MTase Glo Ki (nM, Meth. A). In a few lines: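 PRMT5/MEP50 (10 nM) pre-incubated 24 h with compound, 5 µM SAM and 1 µM MTA, then reaction started with 1 µM Histone H4 (1-21) peptide and run 2 h at room temperature in Tris pH 8.0 buffer. SAH formed detected by MTase-Glo luminescence; IC50 and KI from dose-response curves.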
Sequence of PRMT5/MEP50 (O14744 whole entry): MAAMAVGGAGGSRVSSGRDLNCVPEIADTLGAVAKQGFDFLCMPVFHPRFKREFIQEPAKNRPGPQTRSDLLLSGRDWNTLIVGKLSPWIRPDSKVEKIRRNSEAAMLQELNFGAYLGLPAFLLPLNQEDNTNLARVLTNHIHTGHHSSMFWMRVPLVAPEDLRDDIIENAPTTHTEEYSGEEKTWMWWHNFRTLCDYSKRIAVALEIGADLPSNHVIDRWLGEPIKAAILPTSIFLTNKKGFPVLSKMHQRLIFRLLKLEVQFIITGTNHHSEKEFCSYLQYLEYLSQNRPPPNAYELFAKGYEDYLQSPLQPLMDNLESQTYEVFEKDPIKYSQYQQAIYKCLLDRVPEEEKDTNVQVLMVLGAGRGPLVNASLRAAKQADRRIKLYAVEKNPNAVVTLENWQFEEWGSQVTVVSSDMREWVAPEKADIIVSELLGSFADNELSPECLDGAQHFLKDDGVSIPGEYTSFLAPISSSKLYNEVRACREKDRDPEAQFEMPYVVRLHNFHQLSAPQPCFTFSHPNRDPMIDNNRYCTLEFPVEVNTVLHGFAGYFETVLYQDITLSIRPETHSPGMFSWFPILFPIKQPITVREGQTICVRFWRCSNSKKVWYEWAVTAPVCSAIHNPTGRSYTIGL
Sequence of PRMT5/MEP50 (Q9BQA1 whole entry partner): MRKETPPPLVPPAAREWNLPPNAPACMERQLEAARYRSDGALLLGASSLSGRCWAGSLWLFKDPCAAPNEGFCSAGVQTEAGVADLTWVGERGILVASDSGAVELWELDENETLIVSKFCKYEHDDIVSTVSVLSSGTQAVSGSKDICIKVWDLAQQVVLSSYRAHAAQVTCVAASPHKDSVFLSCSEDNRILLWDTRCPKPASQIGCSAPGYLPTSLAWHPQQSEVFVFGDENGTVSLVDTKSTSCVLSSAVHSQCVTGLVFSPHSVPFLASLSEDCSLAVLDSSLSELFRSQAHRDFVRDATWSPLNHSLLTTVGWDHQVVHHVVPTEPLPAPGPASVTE

For the compound `Nc1nc2ncc(C(=O)N(Cc3ccc(C(F)(F)F)cn3)Cc3ncccc3F)cc2cc1Br` [Example 321, 7-amino-6-bromo-N-((3-fluoro-2-pyridinyl)methyl)-N-((5-(trifluoromethyl)-2-pyridinyl)methyl)-1,8-naphthyridine-3-carboxamide], the IC50 in the assay with HCT116 MTAP null cells (HCT116-MTAP null) is 288 nM; in the assay with HCT116 WT cells it was over 10000 nM. The inhibition constant (Ki) on PRMT5/MEP50 is 0.15 nM.
For `Cc1cc2cc(C(=O)N(Cc3ccc(Br)cn3)[C@H](C)c3ncccc3F)ccc2nc1N` [Example 400, 2-amino-N-((5-bromo-2-pyridinyl)methyl)-N-((1R)-1-(3-fluoro-2-pyridinyl)ethyl)-3-methyl-6-quinolinecarboxamide] the same measures were 41 nM, 960 nM and 0.05 nM.
`Cc1cc2cc(C(=O)N(Cc3ccc(C(F)(F)F)cn3)[C@@H]3CCCNC3=O)ccc2nc1N` (single isomer, unassigned) [Example 461]: the results for the IC50 in the assay on HCT116 MTAP null cells (HCT116-MTAP null) and with HCT116 WT cells were 322 nM and 7780 nM, respectively. Besides, the inhibition constant (Ki) on PRMT5/MEP50 is 1.23 nM.
For `Cc1cc2cc(C(=O)N(Cc3ccc(C(F)(F)F)cn3)[C@@H](C)c3ncn(C)n3)c(F)cc2nc1N` (single isomer, unassigned) [Example 498] the same measures were 459 nM, 2030 nM and 2.43 nM.
For `Cc1cc2cc(C(=O)N(Cc3ccc(Br)nn3)[C@H](C)c3ncccn3)c(F)cc2nc1N` [Example 349, 2-amino-N-((6-bromo-3-pyridazinyl)methyl)-7-fluoro-3-methyl-N-((1R)-1-(2-pyrimidinyl)ethyl)-6-quinolinecarboxamide] the same measures were 36 nM, 848 nM and 0.02 nM.
In the case of `Cc1cc2cc(C(=O)N(Cc3ccc(C(F)(F)F)cn3)CC(C)C)ncc2nc1N` [Example 313, 2-amino-3-methyl-N-(2-methylpropyl)-N-((5-(trifluoromethyl)-2-pyridinyl)methyl)-1,7-naphthyridine-6-carboxamide], the figures for the 50% inhibitory concentration (IC50) with HCT116 MTAP null cells and with HCT116 WT cells were 902 nM and over 10000 nM, respectively. Also, at PRMT5/MEP50, the Ki is 0.98 nM.
`Cc1cc2cc(C(=O)N(Cc3ccc(C(F)(F)F)cn3)[C@H](C)c3ncc(F)cn3)cnc2nc1N` (single isomer, unassigned) [Example 481]: the IC50 with HCT116 MTAP null cells (HCT116-MTAP null) amounted to 225 nM; in the assay with HCT116 WT cells, 4450 nM. On PRMT5/MEP50, the inhibition constant Ki stood at 0.18 nM.
For `Cc1cc2cc(C(=O)N(Cc3ccc(C(F)(F)F)cn3)Cc3ncccc3F)cnc2nc1N` [Example 537, 7-amino-N-((3-fluoropyridin-2-yl)methyl)-6-methyl-N-((5-(trifluoromethyl)pyridin-2-yl)methyl)-1,8-naphthyridine-3-carboxamide] the same measures were 701 nM, 5960 nM and 0.51 nM.
For `CC[C@H](c1ncccn1)N(Cc1ccc(C(F)(F)F)cn1)C(=O)c1cc2cc(Br)c(N)nc2cn1` (single isomer, unassigned) [Example 499] the same measures were 251 nM, over 10000 nM and 0.18 nM.
For `Cc1cc2cc(C(=O)N(Cc3ccc(C(F)(F)F)cn3)Cc3ncccc3F)ncc2nc1N` [Example 312, 2-amino-N-((3-fluoro-2-pyridinyl)methyl)-3-methyl-N-((5-(trifluoromethyl)-2-pyridinyl)methyl)-1,7-naphthyridine-6-carboxamide] the same measures were 806 nM, over 10000 nM and 0.36 nM.
Turning to `Cc1cc2cc(C(=O)N(Cc3ccc(OC4COC4)cn3)[C@H](C)c3ncccn3)ccc2nc1N` [Example 427, 2-amino-3-methyl-N-((5-(3-oxetanyloxy)-2-pyridinyl)methyl)-N-((1R)-1-(2-pyrimidinyl)ethyl)-6-quinolinecarboxamide], the IC50 with HCT116 MTAP null cells (HCT116-MTAP null) came to 151 nM; in the assay with HCT116 WT cells it was 4250 nM. For the same compound, at PRMT5/MEP50, the Ki is 0.1 nM.
For `Cc1cc2cc(C(=O)N(Cc3ccc(C(F)(F)F)cn3)CC(C)C)c(Cl)cc2nc1N` [Example 436, 2-amino-7-chloro-3-methyl-N-(2-methylpropyl)-N-((5-(trifluoromethyl)-2-pyridinyl)methyl)-6-quinolinecarboxamide] the same measures were 198 nM, 3720 nM and 0.14 nM.
On to `Cc1cc2cc(C(=O)N(Cc3ccc(Br)nn3)[C@@H]3CCCn4ncnc43)ccc2nc1N` [Example 416, 2-amino-N-((6-bromo-3-pyridazinyl)methyl)-3-methyl-N-((8R)-5,6,7,8-tetrahydro[1,2,4]triazolo[1,5-a]pyridin-8-yl)-6-quinolinecarboxamide], for which the IC50 in the assay with HCT116 MTAP null cells (HCT116-MTAP null) was found to be 262 nM; in the assay with HCT116 WT cells, 6650 nM. Also, the Ki on PRMT5/MEP50 amounted to 0.17 nM.
For `Cc1cc2cc(C(=O)N(Cc3ccc(C(F)(F)F)nc3C)[C@H](C)c3ncccn3)ccc2nc1N` [Example 509, 2-amino-3-methyl-N-((2-methyl-6-(trifluoromethyl)-3-pyridinyl)methyl)-N-((1R)-1-(2-pyrimidinyl)ethyl)-6-quinolinecarboxamide] the same measures were 137 nM, 4120 nM and 0.13 nM.
For `Cc1cc2cc(C(=O)N(Cc3ccc(N4CC5(COC5)C4)cn3)[C@H](C)c3ncccn3)ccc2nc1N` [Example 556, (R)-N-((5-(2-oxa-6-azaspiro[3.3]heptan-6-yl)pyridin-2-yl)methyl)-2-amino-3-methyl-N-(1-(pyrimidin-2-yl)ethyl)quinoline-6-carboxamide] the same measures were 342 nM, 10100 nM and 4.1 nM.
For `Cc1cc2cc(C(=O)N(Cc3ccc(C(F)(F)F)cn3)Cc3ccnc4[nH]ccc34)ccc2nc1N` [Example 356, 2-amino-3-methyl-N-(1H-pyrrolo[2,3-b]pyridin-4-ylmethyl)-N-((5-(trifluoromethyl)-2-pyridinyl)methyl)-6-quinolinecarboxamide] the same measures were 35 nM, 801 nM and 0.02 nM.
Consider `Cc1cc2cc(C(=O)N(Cc3ccc(C(F)(F)F)cn3)[C@@H]3CCCc4cccnc43)ccc2nc1N` [Example 390, 2-amino-3-methyl-N-((8R)-5,6,7,8-tetrahydro-8-quinolinyl)-N-((5-(trifluoromethyl)-2-pyridinyl)methyl)-6-quinolinecarboxamide], for which the results for the IC50 in the assay with HCT116 MTAP null cells (HCT116-MTAP null) and in the assay with HCT116 WT cells were 23 nM and 460 nM, respectively. Besides, the inhibition constant Ki at PRMT5/MEP50 was 0.25 nM.
For `Cc1cc2cc(C(=O)N(Cc3ccc(C(F)(F)F)cn3)[C@@H]3COCC[C@@H]3O)ccc2nc1N` (single isomer, unassigned) [Example 471] the same measures were 101 nM, 3110 nM and 0.11 nM.
For `C[C@H](c1ncccn1)N(Cc1ccc(C#N)cn1)C(=O)c1ccc2nc(N)c(Cl)cc2c1` [Example 408, 2-amino-3-chloro-N-((5-cyano-2-pyridinyl)methyl)-N-((1R)-1-(2-pyrimidinyl)ethyl)-6-quinolinecarboxamide] the same measures were 597 nM, over 10000 nM and 0.13 nM.
For `Cc1cc2cc(C(=O)N(Cc3ccc(C(F)(F)F)cn3)[C@@H]3CCCc4cn[nH]c43)ccc2nc1N` (single isomer, unassigned) [Example 527] the same measures were 10 nM, 142 nM and 0.05 nM.
In the case of `C[C@H](c1ncccn1)N(Cc1ccc(OC2COC2)cn1)C(=O)c1cnc2nc(N)c(Br)cc2c1` [Example 426, 7-amino-6-bromo-N-((5-(3-oxetanyloxy)-2-pyridinyl)methyl)-N-((1R)-1-(2-pyrimidinyl)ethyl)-1,8-naphthyridine-3-carboxamide], the IC50 in the assay on HCT116 MTAP null cells (HCT116-MTAP null) is 964 nM; in the assay on HCT116 WT cells it was over 10000 nM. The Ki on PRMT5/MEP50 is 0.47 nM.
With `Cc1cc2cc(C(=O)N(Cc3ccc(C(F)(F)F)cn3)Cc3ncn(C)n3)ccc2nc1N` [Example 306, 2-amino-3-methyl-N-((1-methyl-1H-1,2,4-triazol-3-yl)methyl)-N-((5-(trifluoromethyl)-2-pyridinyl)methyl)-6-quinolinecarboxamide], the figures for the half-inhibitory concentration (IC50) in the assay on HCT116 MTAP null cells (HCT116-MTAP null) and with HCT116 WT cells were 401 nM and over 10000 nM, respectively. Further, the inhibitory constant (Ki) at PRMT5/MEP50 was 0.76 nM.
For `Cc1cc2cc(C(=O)N(Cc3ccncc3)Cc3ccc(C(F)(F)F)cn3)ccc2nc1N` [Example 342, 2-amino-3-methyl-N-(4-pyridinylmethyl)-N-((5-(trifluoromethyl)-2-pyridinyl)methyl)-6-quinolinecarboxamide] the same measures were 730 nM, over 10000 nM and 2.72 nM.
For `[2H]C([2H])([2H])c1cc2cc(C(=O)N(Cc3ccc(C#N)cn3)[C@H](C)c3ncccn3)ccc2nc1N` [Example 441, (R)-2-amino-N-((5-cyanopyridin-2-yl)methyl)-3-(methyl-d3)-N-(1-(pyrimidin-2-yl)ethyl)quinoline-6-carboxamide] the same measures were 107 nM, 2810 nM and 0.06 nM.
For `Cc1cc2cc(C(=O)N(Cc3ccc(C#N)cn3)[C@@H](c3ncccn3)C3CC3)ccc2nc1N` [Example 423, 2-amino-N-((5-cyano-2-pyridinyl)methyl)-N-((R)-cyclopropyl(2-pyrimidinyl)methyl)-3-methyl-6-quinolinecarboxamide] the same measures were 54 nM, 1830 nM and 0.07 nM.

As a reminder, the IC50 is the concentration that inhibits the measured activity by half. Usually Ki stands for a measure of affinity in units of concentration, obtained from inhibition or displacement.
